# In ChEMBL document CHEMBL6109084 (Eur J Med Chem, 2025):
# Several values for one entry are separate records, joined by “and”; a condition that tells them apart may be missing. Equal values may be shown once. Activity calls are given as the source filed them. The calls are words filed in the database; no cut-off is given here.
# Key:
# physchem = settings: aqueous medium, pH 7.4
# Description: Aqueous solubility of the compound in DMSO at pH 7.4 incubated for 12 hrs by turbidimetric based UV spectrophotometric analysis
# [1] = Selectivity index, ratio of IC50 for inhibition of chymotrypsin (unknown origin) using N-Suc-Ala-Ala-Pro-Phe-pNA as substrate to IC50 for inhibition of human FXIa using p-Glu-Pro-Arg-pNA.HCl as substrate
# [2] = Selectivity index, ratio of IC50 for inhibition of trypsin (unknown origin) using Bz-Ile-Glu(gamma-OR)-Gly-Arg-pNA.HCl as substrate to IC50 for inhibition of human FXIa using p-Glu-Pro-Arg-pNA.HCl as substrate
# [3] = Selectivity index, ratio of IC50 for inhibition of thrombin (unknown origin) using H-D-Phe-Pip-Arg-pNA.2HCl as substrate to IC50 for inhibition of human FXIa using p-Glu-Pro-Arg-pNA.HCl as substrate
# Plasma kallikrein = Plasma kallikrein (Homo sapiens, UniProt P03952); assay: Inhibition of PKal (unknown origin) using H-D-Pro-Phe-Arg-pNA.2HCl as substrate incubated for 30 mins followed by substrate addition and measured after 60 mins by microplate reader analysis
# Prothrombin = Prothrombin (Homo sapiens, UniProt P00734); assay: Inhibition of thrombin (unknown origin) using H-D-Phe-Pip-Arg-pNA.2HCl as substrate incubated for 30 mins followed by substrate addition and measured after 60 mins by microplate reader analysis
# [4] = Selectivity index, ratio of IC50 for inhibition of plasmin (unknown origin) using PyroGlu-Phe-Lys-pNA.HCl as substrate to IC50 for inhibition of human FXIa using p-Glu-Pro-Arg-pNA.HCl as substrate
# Trypsin = Trypsin (Homo sapiens, UniProt P07477+P07478+P35030); assay: Inhibition of trypsin (unknown origin) using Bz-Ile-Glu(gamma-OR)-Gly-Arg-pNA.HCl as substrate incubated for 30 mins followed by substrate addition and measured after 60 mins by microplate reader analysis; assay type: protein assay
# [5] = Selectivity index, ratio of IC50 for inhibition of tPA (unknown origin) using H-D-Ile-Pro-Arg-pNA-2HCl as substrate to IC50 for inhibition of human FXIa using p-Glu-Pro-Arg-pNA.HCl as substrate
# Plasma [6] = assay: Anticoagulant activity in citrated human plasma assessed as prolongation of prothrombin time incubated for 3 mins by PT reagent based automated coagulometric analysis; assay type: functional, cell-free
# Coagulation factor XII = target: T1, Coagulation factor XII (Homo sapiens, UniProt P00748); assay: Inhibition of FXIIa (unknown origin) using H-D-ProPhe-Arg-pNA.2HCl as substrate incubated for 30 mins followed by substrate addition and measured after 60 mins by microplate reader analysis
# T1 sequence (P00748 whole entry): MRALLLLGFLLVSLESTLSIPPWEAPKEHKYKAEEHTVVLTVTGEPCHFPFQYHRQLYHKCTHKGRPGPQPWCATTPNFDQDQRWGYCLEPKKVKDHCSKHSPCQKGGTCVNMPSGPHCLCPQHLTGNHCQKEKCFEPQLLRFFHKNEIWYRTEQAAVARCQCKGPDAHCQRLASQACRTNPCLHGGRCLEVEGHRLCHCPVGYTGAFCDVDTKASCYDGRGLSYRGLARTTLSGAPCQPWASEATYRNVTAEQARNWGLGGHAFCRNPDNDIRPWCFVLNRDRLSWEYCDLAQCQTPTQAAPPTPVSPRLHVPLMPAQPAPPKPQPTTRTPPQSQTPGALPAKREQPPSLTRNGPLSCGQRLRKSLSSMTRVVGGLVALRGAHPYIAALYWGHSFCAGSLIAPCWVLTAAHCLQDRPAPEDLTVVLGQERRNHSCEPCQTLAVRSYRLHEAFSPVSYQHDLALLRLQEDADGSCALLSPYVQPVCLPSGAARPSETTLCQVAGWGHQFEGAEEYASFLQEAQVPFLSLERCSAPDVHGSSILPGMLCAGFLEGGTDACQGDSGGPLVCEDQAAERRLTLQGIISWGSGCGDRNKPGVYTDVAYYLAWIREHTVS
# Chymotrypsin = Chymotrypsin (Homo sapiens, UniProt Q99895+P17538+P40313+Q6GPI1); assay: Inhibition of chymotrypsin (unknown origin) using N-Suc-Ala-Ala-Pro-Phe-pNA as substrate incubated for 30 mins followed by substrate addition and measured after 60 mins by microplate reader analysis; assay type: protein assay
# [7] = Selectivity index, ratio of IC50 for inhibition of FXa (unknown origin) using Z-D-Arg-Gly-Arg-pNA.2HCl as substrate to IC50 for inhibition of human FXIa using p-Glu-Pro-Arg-pNA.HCl as substrate
# Coagulation factor X = Coagulation factor X (Homo sapiens, UniProt P00742); assay: Inhibition of FXa (unknown origin) using Z-D-Arg-Gly-Arg-pNA.2HCl as substrate incubated for 30 mins followed by substrate addition and measured after 60 mins by microplate reader analysis
# Plasminogen = Plasminogen (Homo sapiens, UniProt P00747); assay: Inhibition of plasmin (unknown origin) using PyroGlu-Phe-Lys-pNA.HCl as substrate incubated for 30 mins followed by substrate addition and measured after 60 mins by microplate reader analysis
# Plasma [8] = assay: Anticoagulant activity in citrated human plasma assessed as prolongation of activated partial thromboplastin time at 1 uM incubated for 3 mins by aPTT reagent based automated coagulometric analysis relative to control; assay type: functional; settings: 0.05 h
# Coagulation factor XI = Coagulation factor XI (Homo sapiens, UniProt P03951); assay: Inhibition of human FXIa using p-Glu-Pro-Arg-pNA.HCl as substrate incubated for 30 mins followed by substrate addition and measured after 60 mins by microplate reader analysis
# [9] = target: Tissue-type plasminogen activator (Homo sapiens, UniProt P00750); assay: Inhibition of tPA (unknown origin) using H-D-Ile-Pro-Arg-pNA-2HCl as substrate incubated for 30 mins followed by substrate addition and measured after 60 mins by microplate reader analysis
# [10] = Selectivity index, ratio of IC50 for inhibition of FXIIa (unknown origin) using H-D-ProPhe-Arg-pNA.2HCl as substrate to IC50 for inhibition of human FXIa using p-Glu-Pro-Arg-pNA.HCl as substrate
# HK-2 [11] = assay: Cytotoxicity against human HK-2 cells assessed as reduction in cell viability at 10 to 50 uM incubated for 24 hrs by MTT assay; assay type: toxicity, cell-based; settings: hk-2, 24 h, dose 10-50 µM
# Plasma [12] = assay: Anticoagulant activity in citrated human plasma assessed as prolongation of activated partial thromboplastin time incubated for 3 mins by aPTT reagent based automated coagulometric analysis; assay type: functional; settings: for EC1.5: 0.05 h
# HepG2 = assay: Cytotoxicity against human HepG2 cells assessed as reduction in cell viability at 1 to 50 uM incubated for 24 hrs by MTT assay; assay type: toxicity, cell-based; settings: hepg2, 24 h, dose 1-50 µM
# [13] = Toxicity in C57BL/6J mouse assessed as prolongation of bleeding time at 10 mg/kg, IG measured after 30 mins by tail bleeding assay; assay type: organism-based; settings: in vivo, po, 0.5 h
# [14] = Toxicity in male New Zealand white rabbit assessed as prolongation of bleeding time at 2 mg/kg, iv by ear bleeding assay; assay type: organism-based, Oryctolagus cuniculus; settings: in vivo
# [15] = Cytotoxicity against human AC16 [Human hybrid] cells assessed as reduction in cell viability at 1 to 50 uM incubated for 24 hrs by MTT assay; assay type: toxicity, cell-based; settings: dose 1-50 µM
# HK-2 [16] = assay: Cytotoxicity against human HK-2 cells assessed as reduction in cell viability at 1 to 50 uM incubated for 24 hrs by MTT assay; assay type: toxicity, cell-based; settings: hk-2, 24 h, dose 1-50 µM
# [17] = Toxicity in C57BL/6J mouse assessed as prolongation of bleeding time at 30 mg/kg, IG measured after 30 mins by tail bleeding assay; assay type: organism-based; settings: in vivo, po, 0.5 h
# Plasma [18] = assay: Anticoagulant activity in mouse plasma assessed as prolongation of activated partial thromboplastin time incubated for 3 mins by aPTT reagent based automated coagulometric analysis; assay type: functional; settings: 0.05 h
# Coagulation factor X, sequence (P00742 41-179 limits assumed): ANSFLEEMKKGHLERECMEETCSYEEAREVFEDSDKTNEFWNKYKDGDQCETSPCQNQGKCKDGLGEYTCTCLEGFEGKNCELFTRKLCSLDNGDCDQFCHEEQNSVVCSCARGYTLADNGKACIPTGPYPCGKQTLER
# Coagulation factor X, sequence (P00742 235-488 limits assumed): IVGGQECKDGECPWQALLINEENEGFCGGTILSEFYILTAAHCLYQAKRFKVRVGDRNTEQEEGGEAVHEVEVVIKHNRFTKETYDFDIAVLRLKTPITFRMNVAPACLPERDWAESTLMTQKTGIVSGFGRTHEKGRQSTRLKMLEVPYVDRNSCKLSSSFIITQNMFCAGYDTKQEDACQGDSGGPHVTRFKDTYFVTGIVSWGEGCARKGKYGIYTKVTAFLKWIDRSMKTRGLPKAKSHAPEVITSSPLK
# Plasminogen, sequence (P00747 97-580 limits assumed): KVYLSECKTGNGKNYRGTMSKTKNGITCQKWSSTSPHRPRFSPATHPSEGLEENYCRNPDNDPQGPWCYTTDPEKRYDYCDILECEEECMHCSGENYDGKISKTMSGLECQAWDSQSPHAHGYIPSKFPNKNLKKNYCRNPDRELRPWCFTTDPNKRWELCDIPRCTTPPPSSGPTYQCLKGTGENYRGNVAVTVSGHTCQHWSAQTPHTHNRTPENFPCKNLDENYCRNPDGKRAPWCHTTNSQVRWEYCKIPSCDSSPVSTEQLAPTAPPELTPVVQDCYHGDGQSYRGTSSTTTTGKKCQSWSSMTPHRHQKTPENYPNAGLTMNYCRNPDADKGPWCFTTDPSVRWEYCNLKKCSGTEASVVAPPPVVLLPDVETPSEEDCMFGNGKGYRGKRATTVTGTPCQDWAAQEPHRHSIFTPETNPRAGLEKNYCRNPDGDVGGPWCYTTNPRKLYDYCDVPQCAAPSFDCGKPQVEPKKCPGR
# Plasminogen, sequence (P00747 581-810 limits assumed): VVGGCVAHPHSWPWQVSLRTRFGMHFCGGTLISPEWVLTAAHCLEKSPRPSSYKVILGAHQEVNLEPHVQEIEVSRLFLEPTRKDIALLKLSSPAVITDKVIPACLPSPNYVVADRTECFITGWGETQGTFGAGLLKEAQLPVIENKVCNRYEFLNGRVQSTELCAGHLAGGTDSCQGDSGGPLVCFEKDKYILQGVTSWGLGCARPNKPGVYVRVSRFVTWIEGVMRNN
# Tissue-type plasminogen activator, sequence (P00750 whole entry): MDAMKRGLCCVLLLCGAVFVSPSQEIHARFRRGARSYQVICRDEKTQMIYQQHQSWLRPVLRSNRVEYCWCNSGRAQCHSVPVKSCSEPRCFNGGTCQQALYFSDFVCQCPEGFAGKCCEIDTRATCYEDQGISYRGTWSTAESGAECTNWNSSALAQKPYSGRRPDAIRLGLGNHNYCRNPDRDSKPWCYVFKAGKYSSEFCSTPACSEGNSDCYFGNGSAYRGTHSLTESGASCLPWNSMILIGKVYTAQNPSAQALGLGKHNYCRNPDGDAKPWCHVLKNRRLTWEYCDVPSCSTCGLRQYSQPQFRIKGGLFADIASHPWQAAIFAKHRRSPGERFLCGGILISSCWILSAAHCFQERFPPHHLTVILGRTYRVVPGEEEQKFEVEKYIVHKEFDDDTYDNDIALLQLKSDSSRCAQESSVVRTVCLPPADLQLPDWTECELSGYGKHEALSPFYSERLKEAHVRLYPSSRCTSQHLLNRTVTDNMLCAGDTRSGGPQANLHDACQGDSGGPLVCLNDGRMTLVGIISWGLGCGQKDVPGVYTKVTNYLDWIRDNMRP
# Coagulation factor XI, sequence (P03951 19-387 limits assumed): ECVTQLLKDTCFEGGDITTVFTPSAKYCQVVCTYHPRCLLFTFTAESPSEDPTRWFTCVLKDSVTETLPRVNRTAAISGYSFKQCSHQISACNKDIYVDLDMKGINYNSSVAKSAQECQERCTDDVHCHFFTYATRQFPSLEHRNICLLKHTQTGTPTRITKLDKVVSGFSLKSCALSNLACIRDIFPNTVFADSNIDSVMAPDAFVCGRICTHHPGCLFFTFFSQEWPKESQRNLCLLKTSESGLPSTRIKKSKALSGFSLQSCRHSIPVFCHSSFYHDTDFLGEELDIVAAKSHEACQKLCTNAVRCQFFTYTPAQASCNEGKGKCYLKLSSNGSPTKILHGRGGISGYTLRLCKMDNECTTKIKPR
# Coagulation factor XI, sequence (P03951 388-625 limits assumed): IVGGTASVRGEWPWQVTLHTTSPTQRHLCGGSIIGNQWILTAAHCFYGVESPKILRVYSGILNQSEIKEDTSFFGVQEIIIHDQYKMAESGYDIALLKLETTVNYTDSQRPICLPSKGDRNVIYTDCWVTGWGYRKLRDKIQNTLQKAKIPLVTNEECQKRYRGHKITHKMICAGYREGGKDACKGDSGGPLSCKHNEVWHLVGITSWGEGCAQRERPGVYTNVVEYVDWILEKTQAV
# Plasma kallikrein, sequence (P03952 20-390 limits assumed): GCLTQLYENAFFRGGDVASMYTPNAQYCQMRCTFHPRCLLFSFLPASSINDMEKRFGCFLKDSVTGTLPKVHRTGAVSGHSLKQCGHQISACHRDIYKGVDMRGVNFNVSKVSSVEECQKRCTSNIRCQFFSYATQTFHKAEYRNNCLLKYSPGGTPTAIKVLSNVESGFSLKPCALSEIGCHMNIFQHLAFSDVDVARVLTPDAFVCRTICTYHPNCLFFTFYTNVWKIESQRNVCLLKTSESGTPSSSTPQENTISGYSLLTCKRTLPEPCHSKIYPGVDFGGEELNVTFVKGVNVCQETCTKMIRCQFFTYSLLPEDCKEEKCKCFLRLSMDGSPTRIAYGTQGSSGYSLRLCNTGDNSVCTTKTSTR
# Plasma kallikrein, sequence (P03952 391-638 limits assumed): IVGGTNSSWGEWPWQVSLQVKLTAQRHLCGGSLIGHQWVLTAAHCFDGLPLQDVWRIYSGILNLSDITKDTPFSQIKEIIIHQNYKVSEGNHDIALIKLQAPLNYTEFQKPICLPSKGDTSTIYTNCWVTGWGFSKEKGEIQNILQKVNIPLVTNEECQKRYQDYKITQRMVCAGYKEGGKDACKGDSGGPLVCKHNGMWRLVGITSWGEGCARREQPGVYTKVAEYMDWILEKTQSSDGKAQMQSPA
IC50 (Prothrombin) [nM],IC50 (Trypsin) [nM],IC50 (Coagulation factor XII) [nM],IC50 (Chymotrypsin) [nM],IC50 (Coagulation factor X) [nM],IC50 (Plasminogen) [nM],IC50 [9] [nM],Compound,Activity (Plasma [8]) [%],Activity (Plasma [12]),EC1.5 (Plasma [12]) [µM],Activity (HepG2),Activity [15],Activity (HK-2 [16]),other results
> 1000,> 1000,> 1000,> 1000,> 1000,> 1000,> 1000,CCC(c1cc(-c2ccc(N)nc2)ccn1)n1cc(OC)c(-c2cc(Cl)ccc2-n2cnnn2)cc1=O (racemic),210.1,Dose-dependent-effect,0.58,–,–,–,solubility kinetic at 12 h (physchem): 108 µg/mL; Ratio IC50 [1]: > 1000; Ratio IC50 [2]: > 1000; Ratio IC50 [3]: > 1000; IC50 (Plasma kallikrein): 81 nM; Ratio IC50 [4]: > 1000; Ratio IC50 [5]: > 1000; Activity (Plasma [6]): inactive; Ratio IC50 [7]: > 1000; IC50 (Coagulation factor XI): 0.37 nM; Ratio IC50 [10]: > 1000; Activity (HK-2 [11]): Toxic
–,–,–,–,–,–,–,O=C(NC[C@H]1CN(c2ccc(N3CCOCC3=O)cc2)C(=O)O1)c1ccc(Cl)s1 [RIVAROXABAN],–,–,–,Non-toxic,Non-toxic,Non-toxic,Activity [13]: Toxic; Activity [14]: Toxic
> 1000,> 1000,> 1000,> 1000,> 1000,> 1000,> 1000,CC[C@@H](C(=O)Nc1ccc(C(N)=O)c(F)c1)n1cc(OC)c(-c2cc(Cl)ccc2-n2cc(C(F)(F)F)nn2)cc1=O,250.8,Dose-dependent-effect,0.42,Non-toxic,Non-toxic,Non-toxic,Activity [17]: Non-toxic; EC1.5 (Plasma [18]): >=9.3 uM and >12.5 uM
